The nature of the series: Oral bioavailability in cynomolgus monkey. To be noted: in vivo. It is filed as ADME, organism-based, Macaca fascicularis.

`CC(C)[C@@H](CS(=O)(=O)C(C)C)N1C(=O)[C@@](C)(CC(=O)O)C[C@H](c2cccc(Cl)c2)[C@H]1c1ccc(Cl)cc1` [NAVTEMADLIN] gave a bioavailability of 51%.

Usually bioavailability stands for the share of a dose that reaches the circulation, judged against a reference dose that is usually intravenous.

For the origin of these results see ChEMBL document CHEMBL3124826, “Discovery of AMG 232, a potent, selective, and orally bioavailable MDM2-p53 inhibitor in clinical development” (J Med Chem, 2014).
